The results in this text go back to US12351559B2 (Biohaven Therapeutics Ltd., priority 2014, dated 2025).

In this experiment the target is T1, Kv7.2/7.3 (Homo sapiens, UniProt O43525+O43526).
T1 construct: host or cells: HEK cells, tetracycline-inducible expression
Description: Kv7.2/7.3 activation assay, QPatch planar patch-clamp, single concentration screen. The note with it: Kv7.2/Kv7.3 co-expressing HEK cells, compound 3 μM, steady-state current at end of 2 s pulse to −30 mV. Also noted: key: <1.2-fold increase over baseline (−); +/−: as a range from <1.2-fold increase over baseline (−) up to >6-fold increase over baseline (+++); as a range from <1.2-fold increase over baseline (−) up to >6-fold increase over baseline (+++); as a range from <1.2-fold increase over baseline (−) up to >6-fold increase over baseline (+++); >6-fold increase over baseline (+++). It is filed as cell-based. Background: In patch-clamp work, channel activity is measured electrically.

Consider `CC(C)[C@@H](C)C(=O)Nc1nc2ccc(C(F)(F)F)cc2n1C1CCC1` [Example 40, (R)-N-(1-cyclobutyl-6-(trifluoromethyl)-1H-benzo[d]imidazol-2-yl)-2,3-dimethylbutanamide], for which the “Kv7.2/7.3 Activity: increase in current over baseline” value (“Kv7.2/7.3 Activity: increase” below) is given as “+”.

Take `Cc1cc2nc(NC(=O)C[C@](C)(O)c3ccccc3F)n(C(C)(C)C)c2cc1C#N` [Example 122, (S)-N-(1-(tert-butyl)-6-cyano-5-methyl-1H-benzo[d]imidazol-2-yl)-3-(2-fluorophenyl)-3-hydroxybutanamide]: the “Kv7.2/7.3 Activity: increase” value is listed as “++”.

Turning to `CC(C)(O)c1ccc2nc(NC(=O)C3CC34CC4)n(C3CCC3)c2c1` (centres unmarked) [Example 105, N-(1-cyclobutyl-6-(2-hydroxypropan-2-yl)-1H-benzo[d]imidazol-2-yl)spiro[2.2]pentane-1-carboxamide], the “Kv7.2/7.3 Activity: increase” value is reported as “+”.

As to `CC1(C)C[C@@H]1C(=O)Nc1nc2ccc(C#N)cc2n1C1CCC1` [Example 11, (S)-N-(6-cyano-1-cyclobutyl-1H-benzo[d]imidazol-2-yl)-2,2-dimethylcyclopropane-1-carboxamide], the “Kv7.2/7.3 Activity: increase” value was “++”.

Take `Cc1cc2nc(NC(=O)C[C@](C)(O)c3ccccc3)n(C(C)(C)C)c2cc1C#N` [Example 119, (S)-N-(1-(tert-butyl)-6-cyano-5-methyl-1H-benzo[d]imidazol-2-yl)-3-hydroxy-3-phenylbutanamide]: the “Kv7.2/7.3 Activity: increase” value was “+/−”.

Take `CC(C)(O)c1ccc2nc(NC(=O)CC(O)(C3CC3)C3CC3)n(C3CCC3)c2c1` [Example 97, N-(1-cyclobutyl-6-(2-hydroxypropan-2-yl)-1H-benzo[d]imidazol-2-yl)-3,3-dicyclopropyl-3-hydroxypropanamide]: the “Kv7.2/7.3 Activity: increase” value is reported as “+/−”.

Consider `Cc1cc(-n2c(NC(=O)[C@H]3CC3(C)C)nc3ccc(C(F)(F)F)cc32)on1` [Example 45, (S)-2,2-Dimethyl-N-(1-(3-methylisoxazol-5-yl)-6-(trifluoromethyl)-1H-benzo[d]imidazol-2-yl)cyclopropanecarboxamide], for which the “Kv7.2/7.3 Activity: increase” value is reported as “+”.

As for `Cc1cc2nc(NC(=O)C[C@](C)(O)c3ccccc3F)n(C3CCC3)c2cc1C#N` [Example 126, (S)-N-(6-cyano-1-cyclobutyl-5-methyl-1H-benzo[d]imidazol-2-yl)-3-(2-fluorophenyl)-3-hydroxybutanamide], the “Kv7.2/7.3 Activity: increase” value was “++”.

Take `C[C@@](O)(CC(=O)Nc1nc2ccc(C#N)cc2n1C1CCC1)c1ccccc1` [Example 30, (R)-N-(6-cyano-1-cyclobutyl-1H-benzo[d]imidazol-2-yl)-3-hydroxy-3-phenylbutanamide]: the “Kv7.2/7.3 Activity: increase” value is “+”.

In the case of `COc1ccc2nc(NC(=O)CCC3CCCC3)n(C(C)C)c2c1` [Example 3, 3-cyclopentyl-N-(1-isopropyl-6-methoxy-1H-benzo[d]imidazol-2-yl)propanamide], the “Kv7.2/7.3 Activity: increase” value was “+++ (>6-fold increase over baseline (+++))”.

`CC(O)c1ccc2nc(NC(=O)[C@@H](C)C(C)C)n(C3CCC3)c2c1` (stereo partly drawn) [Example 56, (2S)-N-(1-cyclobutyl-6-(1-hydroxyethyl)-1H-benzo[d]imidazol-2-yl)-2,3-dimethylbutanamide]: the “Kv7.2/7.3 Activity: increase” value is “++”.

As for `CC(C)(C)CC(=O)Nc1nc2ccc(CC(=O)O)c(F)c2n1C1CCC1` [Example 117, 2-(1-cyclobutyl-2-(3,3-dimethylbutanamido)-7-fluoro-1H-benzo[d]imidazol-6-yl)acetic acid], the “Kv7.2/7.3 Activity: increase” value was “+/−”.

`CC(C)(O)CC(=O)Nc1nc2ccc(C(F)(F)F)cc2n1-c1ccc(OC(F)(F)F)c(F)c1` [Example 144, N-(1-(3-fluoro-4-(trifluoromethoxy)phenyl)-6-(trifluoromethyl)-1H-benzo[d]imidazol-2-yl)-3-hydroxy-3-methylbutanamide]: the “Kv7.2/7.3 Activity: increase” value was “+”.

With `CC(C)(C)CC(=O)Nc1nc2ccc(CO)cc2n1C1CCC1` [Example 51, N-(1-cyclobutyl-6-(hydroxymethyl)-1H-benzo[d]imidazol-2-yl)-3,3-dimethylbutanamide], the “Kv7.2/7.3 Activity: increase” value is listed as “+”.

`CC1(n2c(NC(=O)C[C@](C)(O)c3ccccc3)nc3ccc(C#N)cc32)CCC1` [Example 95, (S)-N-(6-cyano-1-(1-methylcyclobutyl)-1H-benzo[d]imidazol-2-yl)-3-hydroxy-3-phenylbutanamide]: the “Kv7.2/7.3 Activity: increase” value is given as “++”.

For the compound `CC(O)(CC(=O)Nc1nc2ccc(C#N)cc2n1C1CCC1)C1CCCC1` (centres unmarked) [Example 80, N-(6-cyano-1-cyclobutyl-1H-benzo[d]imidazol-2-yl)-3-cyclopentyl-3-hydroxybutanamide], the “Kv7.2/7.3 Activity: increase” value is listed as “+”.

`CC(C)(C)CC(=O)Nc1nc2ccc(C#N)cc2n1-c1ccc(F)cc1` [Example 31, N-(6-cyano-1-(4-fluorophenyl)-1H-benzo[d]imidazol-2-yl)-3,3-dimethylbutanamide]: the “Kv7.2/7.3 Activity: increase” value is reported as “+”.

Regarding `CC1(C)C[C@@H]1C(=O)Nc1nc2ccc(C(F)(F)F)cc2n1C1CCC1` [Example 37, (S)-N-(1-cyclobutyl-6-(trifluoromethyl)-1H-benzo[d]imidazol-2-yl)-2,2-dimethylcyclopropane-1-carboxamide], the “Kv7.2/7.3 Activity: increase” value is given as “+”.

Consider `C[C@@](O)(CC(=O)Nc1nc2ccc(C#N)cc2n1-c1ccc(F)cc1)c1ccccc1` [Example 70, (R)-N-(6-cyano-1-(4-fluorophenyl)-1H-benzo[d]imidazol-2-yl)-3-hydroxy-3-phenylbutanamide], for which the “Kv7.2/7.3 Activity: increase” value is listed as “+/−”.

`CC(C)(O)c1ccc2nc(NC(=O)C[C@](C)(O)c3ccccc3)n(C3CCC3)c2c1` [Example 84, (S)-N-(1-cyclobutyl-6-(2-hydroxypropan-2-yl)-1H-benzo[d]imidazol-2-yl)-3-hydroxy-3-phenylbutanamide]: the “Kv7.2/7.3 Activity: increase” value was “+”.

Take `C[C@](O)(CC(=O)Nc1nc2ccc(Cl)cc2n1-c1ccc(F)cc1)c1ccccc1` [Example 107, (S)-N-(6-chloro-1-(4-fluorophenyl)-1H-benzo[d]imidazol-2-yl)-3-hydroxy-3-phenylbutanamide]: the “Kv7.2/7.3 Activity: increase” value is recorded as “+”.

For the compound `CC(C)(O)c1ccc2nc(NC(=O)C3CCC(F)(F)C3)n(C3CCC3)c2c1` (centres unmarked) [Example 102, N-(1-cyclobutyl-6-(2-hydroxypropan-2-yl)-1H-benzo[d]imidazol-2-yl)-3,3-difluorocyclopentane-1-carboxamide], the “Kv7.2/7.3 Activity: increase” value is recorded as “+/−”.

As to `CC(O)c1ccc2nc(NC(=O)CC(C)(C)C)n(C3CCC3)c2c1` (centres unmarked) [Example 55, N-(1-cyclobutyl-6-(1-hydroxyethyl)-1H-benzo[d]imidazol-2-yl)-3,3-dimethylbutanamide], the “Kv7.2/7.3 Activity: increase” value was “+”.

On to `N#Cc1ccc2nc(NC(=O)[C@@H]3C[C@@H]4CC[C@H]3C4)n(C3CCC3)c2c1` [Example 10, (1S,2R,4R)-N-(6-cyano-1-cyclobutyl-1H-benzo[d]imidazol-2-yl)bicyclo[2.2.1]heptane-2-carboxamide], for which the “Kv7.2/7.3 Activity: increase” value is reported as “+”.

For the compound `Cc1cc(-n2c(NC(=O)[C@@H](C)C(C)(C)C)nc3ccc(C(F)(F)F)cc32)on1` [Example 48, (S)-2,3,3-trimethyl-N-(1-(3-methylisoxazol-5-yl)-6-(trifluoromethyl)-1H-benzo[d]imidazol-2-yl)butanamide], the “Kv7.2/7.3 Activity: increase” value is recorded as “+++ (>6-fold increase over baseline (+++))”.

Turning to `CC(C)(C)CC(=O)Nc1nc2ccc(CC(C)(C)O)c(F)c2n1C1CCC1` [Example 114, N-(1-cyclobutyl-7-fluoro-6-(2-hydroxy-2-methylpropyl)-1H-benzo[d]imidazol-2-yl)-3,3-dimethylbutanamide], the “Kv7.2/7.3 Activity: increase” value is reported as “+”.

For the compound `Cc1cc2nc(NC(=O)C[C@@](C)(O)c3ccccc3)n(C3CCC3)c2cc1C#N` [Example 124, (R)-N-(6-cyano-1-cyclobutyl-5-methyl-1H-benzo[d]imidazol-2-yl)-3-hydroxy-3-phenylbutanamide], the “Kv7.2/7.3 Activity: increase” value was “+/−”.

For `CC(C)(C)CC(=O)Nc1nc2ccc(CC(C)(C)O)c(F)c2n1-c1ccc(F)cc1` [Example 116, N-(7-fluoro-1-(4-fluorophenyl)-6-(2-hydroxy-2-methylpropyl)-1H-benzo[d]imidazol-2-yl)-3,3-dimethylbutanamide], the “Kv7.2/7.3 Activity: increase” value is on record as “+”.

For `Cc1cc2nc(NC(=O)C[C@@](C)(O)C(F)(F)F)n(C(C)(C)C)c2cc1C#N` [Example 135, (R)-N-(1-(tert-butyl)-6-cyano-5-methyl-1H-benzo[d]imidazol-2-yl)-4,4,4-trifluoro-3-hydroxy-3-methylbutanamide], the “Kv7.2/7.3 Activity: increase” value was “+/−”.

For the compound `C[C@](O)(CC(=O)Nc1nc2ccc(Cl)cc2n1C1CCC1)c1ccc(F)cc1` [Example 103, (S)-N-(6-chloro-1-cyclobutyl-1H-benzo[d]imidazol-2-yl)-3-(4-fluorophenyl)-3-hydroxybutanamide], the “Kv7.2/7.3 Activity: increase” value is reported as “+”.

As to `CC(C)[C@H](C)C(=O)Nc1nc2ccc(CO)cc2n1C1CCC1` [Example 52, (S)-N-(1-cyclobutyl-6-(hydroxymethyl)-1H-benzo[d]imidazol-2-yl)-2,3-dimethylbutanamide], the “Kv7.2/7.3 Activity: increase” value is listed as “+/−”.

Regarding `C[C@H](C(=O)Nc1nc2ccc(C#N)cc2n1-c1ccc(F)cc1)C(C)(C)C` [Example 71, (S)-N-(6-cyano-1-(4-fluorophenyl)-1H-benzo[d]imidazol-2-yl)-2,3,3-trimethylbutanamide], the “Kv7.2/7.3 Activity: increase” value is listed as “+”.
